{"source": "patent US8178506B2", "about": "“Oligomeric compounds and compositions for use in modulation of small non-coding RNAs” (Regulus Therapeutics Inc., priority 2003, dated 2012)", "key": {"[1]": {"system": "mir-143 miRNA binding site", "assay": "GFP mir-143 sensor reporter in T-REx-HeLa cells", "assay_type": "cell-based, human", "details": "T-REx-HeLa, 24 hours post-transfection", "excerpt": "Reporter systems have been developed herein to assess the ability of miRNA mimics to provoke a gene silencing response and to assess whether antisense oligomeric compounds targeting miRNAs can inhibit gene silencing activity. The T-REx™-HeLa cell line (Invitrogen Corp., Carlsbad, Calif.) was used for either stable or transient transfections with plasmids constitutively expressing miRNAs, pre-miRNAs, pri-miRNAs or mimics thereof, and, in some cases, antisense oligomeric compounds targeting the expressed miRNA were also transfected into the cells. It is understood that other mammalian cells lines can also be used in this reporter system. T-REx™-HeLa cells were routinely cultured in DMEM, high glucose (Invitrogen Corporation, Carlsbad, Calif.), supplemented with 10% fetal bovine serum (Invitrogen Corporation). […] Cells were harvested when they reached 90% confluence, and on the day before transfection with expression or reporter plasmids (described in detail below), the T-REx™-HeLa cells were seeded onto 24-well plates at 50,000 cells/well. The following day, cells were transfected according to standard published procedures with various combinations of plasmids using 2 μg Lipofectamine™ 2000 Reagent (Invitrogen) per μg of plasmid DNA. When transfecting oligomeric compounds, 1-3 μg of Lipofectamine™ 2000 Reagent was used per 100 nM oligomeric compound.\nPlasmids used are as follows: The pcDNA3.1©/NT-GFP (Invitrogen) plasmid, containing a CMV promoter controlling expression of a GFP reporter sequence at the N-terminus of the transcription start site was used as a control plasmid. The pcDNA3.1©/NT-GFP-mir-143 sensor plasmid contains (in addition to the elements above) three 22-nucleotide sites encoding the mir-143 miRNA binding site, downstream of the GFP coding sequence and upstream of the polyadenylation signal. The pCR3-pri-mir-143 plasmid (“pri-mir-143”) is a CMV promoter-driven constitutive expression plasmid which expresses the 110-nucleotide mir-143 pri-miRNA sequence (SEQ ID NO: 38), to act as a mir-143 pri-miRNA mimic. The pCR3-pri-mir control (“pri-mir-control”) is a CMV promotor-driven constitutive expression plasmid which is designed to express a similar 110-nucleotide pri-miRNA sequence ([…] CAGC; SEQ ID NO: 862) wherein the mature mir-143 sequence has been replaced with an unrelated sequence and the predicted complementary strand opposite it within the pri-miRNA structure is replaced with a nearly complementary sequence in order to preserve the stem loop as well as the bulge structure of the natural mir-143 pri-miRNA. Additionally, in order to test the effect of an oligomeric compound targeting a miRNA, the T-REx™-HeLa cells were also transfected with the uniform 2′-MOE phosphorothioate (PS) antisense oligomeric compound ISIS Number 327901 (SEQ ID NO: 319), targeted to mir-143 previously described.\nTwenty-four hours post-transfection, cells were trypsinized and GFP fluorescence was analyzed by flow cytometry."}, "[2]": {"system": "mir-143 binding site in 3′-UTR of ERK5", "assay": "pGL3-ERK5-3′UTR luciferase assays in HeLa cells", "assay_type": "cell-based, human", "details": "for luciferase expression: HeLa cells, 24 hours", "description": "An expression system based on the pGL3-Control (Promega Corp., Madison Wis.) reporter vector and comprising predicted miRNA binding sites was used in transient transfections of HeLa cells with plasmids expressing oligomeric compounds mimicking miRNAs, pre-miRNAs or pri-miRNAs in order to assess the ability of these miRNA mimics to bind and regulate the expression of the luciferase reporter. The effect of increasing the copy number of the miRNA-binding site in the target was also tested by including multiple binding sites in artificial reporter constructs. It is understood that the presence of multiple miRNA-binding sites in a target can include binding sites for different miRNAs.\nThe following reporter plasmids were constructed by cloning the specified fragment into the XbaI site of the pGL3-control plasmid, placing the potential miRNA-binding site in the 3′-UTR of the luciferase reporter: The reporter plasmid pGL3-bulge(×3) contains three contiguous copies of the sequence ([…]; herein incorporated as SEQ ID NO: 874) which represents a sequence complementary to the mir-143 miRNA except that it is missing 2 nucleotides such that the mir-143 miRNA is presumed to adopt a bulged structure when it hybridizes to this target sequence. The pGL3-GLO1 reporter plasmid contains a DNA fragment comprising the 3′-UTR of the GLO1 sequence; this fragment was PCR-amplified using a primer beginning at nucleotide number 621 of the GLO1 sequence (GenBank Accession NM_006708.1, SEQ ID NO: 821) and the downstream primer hybridizing to the poly A tail. The pGL3-PP2A reporter plasmid contains a DNA fragment comprising the 3′-UTR of the PP2A gene; this fragment was PCR-amplified using a primer beginning at nucleotide number 921 of the PP2A sequence (GenBank Accession NM_004156.1) and the downstream primer hybridizing to the poly A tail. The reporter plasmid pGL3-ERK5-3′-UTR(×1) contains one copy of the sequence […] (herein incorporated as SEQ ID NO: 875), found in the 3′-UTR of ERK5 and predicted by Lewis, et al. to be bound by the mir-143 miRNA, and the reporter plasmid pGL3-ERK5-3′UTR(×3) has three contiguous copies of this sequence. The reporter plasmid pGL3-ERK5-3′UTR(ext) contains one copy of the sequence […] (herein incorporated as SEQ ID NO: 876), which includes an additional ten nucleotides at either end of the mir-143 binding site in 3′-UTR of ERK5 predicted by Lewis, et al. (Lewis et al., Cell, 2003, 115, 787-798). The plasmids pGL3-ERK5-cds(×1), pGL3-ERK5-cds(×2), pGL3-ERK5-cds(×3), and pGL3-ERK5-cds(×5) contain one, two, three or five contiguous copies, respectively, of the novel mir-143 binding site ([…]; herein incorporated as SEQ ID NO: 877) we identified within the coding sequence of ERK5. The unmodified pGL3-Control luciferase reporter vector was used as a negative control, and the pGL3-mir-143 sensor reporter plasmid was used as a positive control.\nHeLa cells were routinely cultured and passaged as described. In some embodiments, HeLa cells were transfected with 0.05 μg of the relevant pGL3-sensor plasmid and 0.01 μg pRL-CMV plasmid. Additionally, in some embodiments, cells were treated at various dosages (11 nM, 33 nM, and 100 nM) with the following oligomeric compound mimics: 1) ds-mir-143, or 2) ds-Control as described. In accordance with methods described in Example 12, a luciferase assay was performed 24-hours after transfection. The results, shown in Tables 40 and 41, are an average of three trials. Data are presented as percent untreated control (luciferase plasmid only, not treated with oligomeric compound) luciferase expression, normalized to pRL-CMV levels."}}, "data": [{"substance": "ds-mir-143: double-stranded RNA of ISIS 342199 hybridized to its perfect complement ISIS 342200 (sense UGAGAUGAAGCACUGUAGCUCA; antisense UGAGCUACAGUGCUUCAUCUCA; RNA, backbone not given here)", "values": [{"measurement": "expression of GFP from the pcDNA3.1/NT-GFP-mir-143 sensor plasmid", "setting": "[1]", "value": "inhibited expression of GFP from the sensor plasmid in a dose dependent manner"}, {"measurement": "luciferase activity from pGL3-ERK5-3′UTR(×1)", "setting": "[2]; HeLa, 11, 33 and 100 nM", "value": "did not inhibit luciferase activity"}, {"measurement": "luciferase activity from pGL3-ERK5-3′UTR(×3)", "setting": "[2]; HeLa, 11, 33 and 100 nM", "value": "inhibition of luciferase activity"}, {"measurement": "luciferase expression", "setting": "[2]; Table 40, pGL3-ERK5-3′UTR(x1), 11 nM", "value": 81.9, "unit": "percent untreated control"}, {"measurement": "luciferase expression", "setting": "[2]; Table 40, pGL3-ERK5-3′UTR(x1), 33 nM", "value": 84.7, "unit": "percent untreated control"}, {"measurement": "luciferase expression", "setting": "[2]; Table 40, pGL3-ERK5-3′UTR(x1), 100 nM", "value": 62.2, "unit": "percent untreated control"}, {"measurement": "luciferase expression", "setting": "[2]; Table 41, pGL3-ERK5-3′UTR(ext), 11 nM", "value": 89.0, "unit": "percent untreated control"}, {"measurement": "luciferase expression", "setting": "[2]; Table 41, pGL3-ERK5-3′UTR(ext), 33 nM", "value": 106.7, "unit": "percent untreated control"}, {"measurement": "luciferase expression", "setting": "[2]; Table 41, pGL3-ERK5-3′UTR(ext), 100 nM", "value": 81.4, "unit": "percent untreated control"}, {"measurement": "luciferase expression", "setting": "[2]; Table 41, pGL3-ERK5-3′UTR(x1), 11 nM", "value": 92.2, "unit": "percent untreated control"}, {"measurement": "luciferase expression", "setting": "[2]; Table 41, pGL3-ERK5-3′UTR(x1), 33 nM", "value": 108.1, "unit": "percent untreated control"}, {"measurement": "luciferase expression", "setting": "[2]; Table 41, pGL3-ERK5-3′UTR(x1), 100 nM", "value": 81.9, "unit": "percent untreated control"}, {"measurement": "luciferase expression", "setting": "[2]; Table 41, pGL3-ERK5-3′UTR(x3), 11 nM", "value": 51.7, "unit": "percent untreated control"}, {"measurement": "luciferase expression", "setting": "[2]; Table 41, pGL3-ERK5-3′UTR(x3), 33 nM", "value": 51.0, "unit": "percent untreated control"}, {"measurement": "luciferase expression", "setting": "[2]; Table 41, pGL3-ERK5-3′UTR(x3), 100 nM", "value": 28.2, "unit": "percent untreated control"}]}]}
